We go through 8 compounds from patent US20030157197A1, “PLANT-DERIVED ANTI-PARASITIC AND ANTIFUNGAL COMPOUNDS AND METHODS OF EXTRACTING THE COMPOUNDS” (priority 1998, published 2003).

≈ marks a conversion by molar mass, not a printed value. Where two headings read alike, the source gives them in different places.

One data set deals with RK13 cells. Set-up: dose or concentration left out as unconfirmed. The note with it: cited from earlier work.
The test system of another data set is Enterocytozoon cuniculi. More on the design: dose or concentration left out as unconfirmed. The following applies: cited from earlier work.
For data set [1], the system named is Leishmania (Leishmania) chagasi, MHOM/BR/84/BA-13 promastigotes. As to the kind of experiment: in vitro radiorespirometric microtest (RAM), antileishmanial. It is filed as cell-based. The note with it: for respiration / metabolic rate for 14C-substrates: 50 μg/ml for 96 h, versus vehicle control. Here is the method:
An in vitro radiorespirometric microtest (RAM) technique was used to evaluate the extracts/fractions or pure compounds for possible antileishmanial activity. This method, as already noted, relies on drug inhibition of parasite production of ^14CO2 from a battery of ^14C-substrates by promastigotes to detect drug-mediated parasite damage at low drug concentration within a short time. The test is quantitative, rapid, consistent, and is conducted in serum-free medium in which prior adaptation is not necessary to cultivate the so-called “difficult to grow” species.
A clinical isolate of visceral Leishmania (Leishmania) chagasi, MHOM/BR/84/BA-13, was used for this study. This isolate was selected because sensitivity to SbV was previously determined using RAM.
All ^14C-substrates were selected with specific activities as close to 40 mCi mM^−1 per carbon atom as obtainable from commercial sources.
The procedure was conducted as previously described (Jackson et al., 1989, 1990). Promastigotes were maintained in log phase growth for 3 successive transfers (48-72 h apart) prior to radiorespirometric (RAM) testing. Test samples (or PBSS, 0.1 M phosphate-buffered balanced salt solution, plus drug solvent, DMSO, for parallel control cultures) was added 24 h after the third promastigote transfer to fresh growth medium. Incubation in the presence of plant samples was continued for 96 additional hours while the parasites remained in mid-log phase growth. The test sample was tested at 50 μg ml^−1. Drug sensitivity or resistance was based on ^14C-substrate(s) (listed in Table 1) for which ^14CO2 release was decreased for drug-treated parasites compared to parallel tests of phosphate-buffered balanced salt solution and vehicle (PBSS+DMSO) controls. Each experiment consisted of parallel: (a) duplicate tests of drug-treated parasites; plus (b) duplicate tests of drug vehicle control-treated parasites; plus (c) one “nonbiological” sterility control. The nonbiological control consisted of each ^14C-substrate (one substrate per microtiter tray well), and PBSS (the same PBSS batch used to wash, to suspend the parasites, and to make drug solution). Since there were no parasites in the nonbiological control, any ^14CO2 detected was attributed either to biologic contamination (or, less likely, chemical contamination) of the ^14C-substrates resulting in breakdown of the ^14C-substrates. If radioactivity above background (10 dpm) was detected in the nonbiological control, the suspect solution(s) was replaced and the experiment was repeated.

Data set [2] concerns Plasmodium falciparum Sierra Leone (D-6) clone. The experiment in a line: in vitro antimalarial assay, [3H]hypoxanthine uptake, D-6 clone. In kind it is cell-based. The note with it: chloroquine-susceptible. On the procedure: (§1) The in vitro antimalarial assays were performed by using a modification of the semi-automated microdilution technique described earlier (Desjardins et al., 1979, Milhous et al., 1985). Two Plasmodium falciparum malaria parasite clones, designated Indochina (W-2) and Sierra Leone (D-6), were utilized in susceptibility testing. The W-2 clone is resistant to chloroquine, pyrimethamine, sulfadoxine, and quinine, and the D-6 clone is resistant to mefloquine.
(§2) The test extracts/compound, was dissolved in DMSO and serially diluted using malarial growth medium. Drug-induced reduction in uptake of titriated hypoxanthine was used as an index of inhibition of parasite growth.

In data set [3] the test system is Plasmodium falciparum Indochina (W-2) clone. As to the kind of experiment: in vitro antimalarial assay, [3H]hypoxanthine uptake, W-2 clone. In kind it is cell-based. The following applies: chloroquine-resistant. On the procedure:
as §1, §2

The test system of the next data set is Cladosporium cucumerinum. As to the kind of experiment: TLC bioautographic antifungal test. In kind it is cell-based. The following applies: TLC plate sprayed with spore suspension. Here is the method: A method similar to that of Homans and Fuchs (1970) was employed. This technique involves direct spraying of thin layer chromatograms with conidial suspensions of a test organism. About 100 μg of extract was spotted on silica gel TLC plates and developed with suitable solvent system. Dried plates were separately sprayed with either a spore suspension of Cladosporium cucumerinum, and subsequent plates with spore suspensions of Cladosporium carrionii, Cladosporium cladosporioides, Cladosporium tennuisimum (ATCC 623337) and Fonsecaea pedrosoi (ATCC 52593), in some cases to determine the spectrum of activity. The plates were then incubated in sealed humid chambers at room temperature for four days in the dark. […] The powdered rhizome of A. danellii (200 g)was continously extracted with petroleum ether (bp 40-60° C.) to exhaustion in as soxhlet extractor. The petroleum ether extracts when combined and concentrated to dryness in vacuo gave a reddish brown residue (11.41 g). The air dried marc from the above extract was again extracted with ethanol in a soxhlet extractor, extracts were concentrated to dryness under reduce pressure using the rotary evaporator at 40° C. Both extracts were tested for antifungal activity using bioautography (TLC-bioassay) as described above. […]

The conditions of data set [4]: human; cited from earlier work.
Data set [5] has as its system Trypanosoma brucei brucei Lab 110 EATRO and Trypanosoma brucei rhodesiense KETRI 243, 269, 243 As-10-3. The experiment in a line: in vitro trypanosome screen, bloodstream trypomastigotes. It is filed as cell-based. The note with it: for IC50: Trypanosoma brucei, RHODESIENSE; for fold increase in activity: versus primary extract / related species. On the procedure: The in vitro activity of 39 plant extracts was tested against four strains of animal or human-pathogenic African trypanosomes, and three strains of mammalian-pathogenic Trichomonas spp. The trypanosomes studied were Trypanosoma brucei brucei Lab 110 EATRO, which is pathogenic to cattle and other livestock, and several strains of Trypanosoma brucei rhodesiense, a parasite of humans, domestic and wild animals. Strains of T. b. rhodesiense included drug resistant clinical isolates KETRI 243 and 269 and KETRI 243 As-10-3, a highly melarsen- and diamidine-resistant clone of KETRI 243. The 39 extracts were tested in an in vitro screen using a semi-defined medium for growth of bloodstream trypomastigotes at 37° C. (Hirumi & Hirumi, 1989) to determine IC50 values (Bacchi et al., 1996). Of these, 10 had IC50values at or below 10 μg/ml and were considered sufficiently active to warrant testing of more purified extracts. Of the four secondary extracts supplied, one, aulacocarpin (III) (SU1460), derived from the primary extract SU787 of A. aulocacarpus featured a 10-15 fold increase in activity. […] Eight additional primary extracts were also tested in the trypanosome screen (Table 3). […] Aulocacarpin (III) is an extract from Aframonum aulocacarpus and has the following formula: [drawing 3]

[6] abbreviates: Plasmodium falciparum, read-out: IC50.
The mark [7] stands for this setting: previously determined using RAM.

With `CCNCCCNCCCNCCCNCC` [1,11-diethylnorspermine], the “toxicity to feeder layer RK13 cells” value in the data set on RK13 cells is recorded as “without toxicity”. In the data set on Enterocytozoon cuniculi, the “effect on parasite culture” value is given as “sterilize the culture”.

As for `CCNCCCCNCCCCNCCCCNCCCCNCC` [1,19-bis(ethylamino)5,10,15-triazanonadecane], in the data set with RK13 cells, the “toxicity to feeder layer RK13 cells” value was “without toxicity”. Also, the “effect on parasite culture” value in the data set on Enterocytozoon cuniculi is listed as “sterilize the culture”.

As for `C=C1CC[C@H]2C(C)(C)CCC[C@]2(C)[C@H]1C/C=C(/C=O)CC=O` [Labda-8(17),12-diene-15,16-dial, labda-8(17),12-diene-15,16-dial], the “concentration inhibiting Leishmania promastigotes” value in data set [1] was ≤ 50 µg. Besides, in data set [1] (50 μg/ml), the “inhibition of growth of the leishmania strain” value is given as “completely inhibited”. For the same compound, the “respiration / metabolic rate for 14C-substrates” value in data set [1] was “markedly reduced respiration”; in data set [1] (listed as labdane-dial) it was “near zero”. In data set [1] (after a 96 hr incubation), the “parasite viability in culture” value is on record as “no live parasites were observed”. Besides, the IC50 – broadly, the concentration at which inhibition is half-maximal – in data set [2] was 0.09666 µg/mL (≈ 0.32 µM); in data set [3], 0.28018 µg/mL (≈ 0.926 µM). Besides, the “lowest concentration giving a clearly visible inhibition zone” value in the data set on Cladosporium cucumerinum worked out at 0.5 µg.

With `Nc1nc(N)nc(Nc2ccc([As]3SCC(CO)S3)cc2)n1` (stereo not shown) [Melarsoprol, melarsoprol], in data set [4], the “incidence of cerebral episodes” value is given as 3-5%.

As for `COC(=O)C(CC[C@H]1C2(CCC3C(C)(C)[C@@H](O)CC[C@@]31C)CO2)C1CO1` (stereo partly shown) [SU1460, aulacocarpin], in data set [5], the IC50 amounted to 0.86 µg/mL (≈ 2.35 µM) and the “fold increase in activity” value was 10-15 fold.

Consider `COc1cc(O)c2c(c1)O[C@H](c1ccc(O)cc1)CC2=O` [Sakuranetin], for which the antileishmanial activity entry in data set [1] (in vitro) is “strongest antileishmanial activity”. The IC50 in data set [2] (setting [6]) is 0.124 µg/mL (≈ 0.433 µM); in data set [3] (setting [6]), 0.17 µg/mL (≈ 0.594 µM).

For `CC1(C)CCC[C@@]2(C)[C@H]1CC[C@@]1(CO1)[C@@H]2C/C=C(/C=O)CC=O` [aframodial], in data set [5], the IC50 is 0.86 µg/mL (≈ 2.7 µM) and the “fold increase in activity” value was 10-11 fold.

“sodium antimony gluconate [Pentostam, reference compound]”: in data set [1] (setting [7]), the “concentration at which the isolate is sensitive, as Sb” value came out at 6 μg ml^−1 Sb and the “concentration at which the isolate is sensitive, as drug” value stood at 20 μg ml^−1 drug.
